Measured values published in patent publication US10675251B2, “Particles containing branched polymers” (The University of Liverpool, priority 2014, dated 2020).

Test: Drug loading (encapsulation) in co-nanoprecipitated particles
Type: physicochemical
Protocol: During a typical nanoparticle preparation, 5.5 mL of a 1 mg/mL acetone solution of efavirenz, ritonavir or lopinavir is added to a vial and left to evaporate overnight. To this vial 25 mg of the branched polymer and 25 mg of the polymer diblock were added and dissolved in 10 mL of acetone during 6-8 hours to ensure complete solubilisation. 1 mL of the 5 mg/mL solution of polymers and dissolved drug was added to 5 mL of stirring distilled water (500 rpm) and left for 24 hours for complete acetone evaporation (final concentration of polymer 1 mg/mL). During a typical nanoparticle preparation 5.5 mL of a 1 mg/mL acetone solution of irinotecan was added to a vial and left to evaporate overnight. To this vial, 25 mg of the branched polymer and 25 mg of the polymer diblock were added and dissolved in 10 mL of acetone during 6-8 hours to ensure complete solubilisation. 1 mL of the 5 mg/mL solution of polymers and dissolved drug was added to 5 mL of stirring water (500 rpm) and left for 24 hours for complete acetone evaporation.

## O=C1Nc2ccc(Cl)cc2[C@@](C#CC2CC2)(C(F)(F)F)O1 [Efavirenz]
  drug loading achieved: 25 wt %

## CCc1c2c(nc3ccc(OC(=O)N4CCC(N5CCCCC5)CC4)cc13)-c1cc3c(c(=O)n1C2)COC(=O)[C@]3(O)CC [Irinotecan]
  drug loading achieved: effectively encapsulated at 10 wt % or 15 wt %
